Test [1] has as its target human GLP-1 receptor (GLP-1R) (Homo sapiens, UniProt P43220). Description: cAMP pharmacological functional assay in presence of casein, hGLP-1R. Format: cell-based. As to conditions: HEK293 cells expressing hGLP-1R, 0.1% Casein, geometric mean; read-out: hGLP1R cAMP Rel EC50 nM (SEM, n).
For test [2], the target named is T1, gastric inhibitory peptide receptor (GIPR) (Homo sapiens, UniProt P48546).
T1 sequence (P48546 22-466): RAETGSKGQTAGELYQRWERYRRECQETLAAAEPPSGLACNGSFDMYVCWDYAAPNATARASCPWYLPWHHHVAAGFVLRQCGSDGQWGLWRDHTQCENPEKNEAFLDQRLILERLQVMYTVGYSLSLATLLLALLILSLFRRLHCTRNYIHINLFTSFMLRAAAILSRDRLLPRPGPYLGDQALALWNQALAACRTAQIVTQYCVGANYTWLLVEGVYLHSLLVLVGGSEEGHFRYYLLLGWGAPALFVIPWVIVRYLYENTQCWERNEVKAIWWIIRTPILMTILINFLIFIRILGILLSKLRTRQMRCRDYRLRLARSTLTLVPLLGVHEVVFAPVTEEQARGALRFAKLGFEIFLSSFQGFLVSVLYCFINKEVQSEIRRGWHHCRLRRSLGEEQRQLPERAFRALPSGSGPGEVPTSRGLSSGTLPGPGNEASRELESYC
Kind of test: cAMP pharmacological functional assay in presence of casein, hGIPR. Particulars: HEK293 cells expressing hGIPR, 0.1% Casein, geometric mean; read-out: hGIPR cAMP Rel EC50 nM (SEM, n). Format: cell-based.

The target of a further test is T2, human Gcg receptor (Homo sapiens, UniProt P47871).
T2 construct: expressed in transfected cells; crude membranes
Description: [125I]-Glucagon binding (SPA), human Gcg receptor. As to conditions: read-out: hGLcgR Ki, nM (SEM, n). The procedure, abridged: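 Scintillation counts are taken after membranes and WGA beads incubate and settle for 12 hours at room temperature. Buffer is 25 mM HEPES, pH 7.4, with CaCl2, MgCl2, bacitracin and Tween-20. Ki values, from four-parameter IC50 fits, are geometric means over independent days.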

Another test concerns the target T3, human GIP receptor (Homo sapiens, UniProt P48546).
T3 construct: expressed in transfected cells; crude membranes
T3 sequence (P48546 22-466): T1 sequence (P48546 22-466)
Description: [125I]-GIP binding (SPA), human GIP receptor. As to conditions: read-out: hGIPR Ki, nM (SEM, n).

For the next test, the target named is human GLP-1R (Homo sapiens, UniProt P43220). Description: [125I]-GLP-1 binding (SPA), human GLP-1 receptor. Further details: expressed in transfected cells; crude membranes. As to conditions: read-out: hGLP1R Ki, (nM) (SEM, n). The procedure, abridged:
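Assay buffer: HEPES 25 mM, pH 7.4, CaCl2 2.5 mM, MgCl2 1 mM, with EDTA-free protease inhibitors. Receptor came from crude cell membranes prepared by homogenization and centrifugation at 4° C. IC50s came from four-parameter fits (maximum, minimum, IC50, Hill slope) and were expressed as Ki geometric means with SEM.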

Among the data in patent US12252524B2, “GIP/GLP1 co-agonist compounds” (Eli Lilly and Company, priority 2018, dated 2025) are EC50 and Ki values, retold here.

Molecules are shown by their SMILES. Numbered stars: 1 amine (or outer) side, 2 acyl side, 3 side chain; on linkers, the order of the positions; unused ones are H or OH. Square brackets hold non-standard residues; d marks the D form. Side chains are listed from the residue outwards. Peptide text beside a SMILES is read from it. * marks the point of attachment. C20 diacid = O=C(O)CCCCCCCCCCCCCCCCCCC(=O)*; C18 diacid = O=C(O)CCCCCCCCCCCCCCCCC(=O)*; αMePhe(2-F) = C[C@](N)(Cc1ccccc1F)C(=O)O; γGlu = O=C(O)[C@H](CCC(=O)[*:2])N[*:1]; αMeY = C[C@](N)(Cc1ccc(O)cc1)C(=O)O; αMeF = C[C@](N)(Cc1ccccc1)C(=O)O; αMeL = CC(C)C[C@](C)(N)C(=O)O; AEEA = NCCOCCOCC(=O)O; Aib = CC(C)(N)C(=O)O

human GLP-1 receptor (GLP-1R), sequence (P43220 24-463): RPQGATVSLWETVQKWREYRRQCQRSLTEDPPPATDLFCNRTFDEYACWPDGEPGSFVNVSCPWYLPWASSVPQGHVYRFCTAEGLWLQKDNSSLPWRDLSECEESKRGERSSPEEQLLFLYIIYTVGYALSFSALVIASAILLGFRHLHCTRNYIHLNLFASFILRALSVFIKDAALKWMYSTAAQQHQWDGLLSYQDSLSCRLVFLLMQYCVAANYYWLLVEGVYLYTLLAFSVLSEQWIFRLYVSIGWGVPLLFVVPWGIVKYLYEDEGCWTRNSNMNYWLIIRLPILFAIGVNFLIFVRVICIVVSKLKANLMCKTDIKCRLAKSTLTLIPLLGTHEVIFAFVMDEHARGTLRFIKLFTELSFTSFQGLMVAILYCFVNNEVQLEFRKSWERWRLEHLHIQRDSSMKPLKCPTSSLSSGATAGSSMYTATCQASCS
human GLP-1R, sequence (P43220 24-463): as above
T2 sequence (P47871 26-477): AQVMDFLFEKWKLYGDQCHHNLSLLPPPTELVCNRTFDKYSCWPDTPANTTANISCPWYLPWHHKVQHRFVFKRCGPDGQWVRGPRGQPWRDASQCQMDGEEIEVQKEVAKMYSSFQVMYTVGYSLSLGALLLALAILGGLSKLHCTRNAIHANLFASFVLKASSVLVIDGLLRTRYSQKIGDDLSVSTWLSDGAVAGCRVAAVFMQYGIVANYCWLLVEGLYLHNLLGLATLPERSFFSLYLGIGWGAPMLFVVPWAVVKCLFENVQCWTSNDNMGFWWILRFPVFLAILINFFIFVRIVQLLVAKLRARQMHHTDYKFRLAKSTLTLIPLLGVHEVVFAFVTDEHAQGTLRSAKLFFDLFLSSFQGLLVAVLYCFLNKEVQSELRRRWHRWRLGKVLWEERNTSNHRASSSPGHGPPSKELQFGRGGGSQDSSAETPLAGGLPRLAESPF

As usually defined, the EC50 is the concentration needed to bring the measured effect to its halfway point. What is called Ki is the equilibrium dissociation constant of an inhibitor or competing ligand from its target. Take `CC[C@H](C)[C@H](NC(=O)[C@H](CC(C)C)NC(=O)[C@H](Cc1ccc(O)cc1)NC(=O)[C@@H](CCC(=O)O)NC(=O)[C@@H](NC(=O)[C@H](Cc1ccccc1)NC(=O)[C@H](CCC(=O)O)NC(=O)C(C)(C)NC(=O)[C@H](CCC(N)=O)NC(=O)[C@H](C)NC(=O)[C@H](CCCCNC(=O)COCCOCCNC(=O)COCCOCCNC(=O)CC[C@H](NC(=O)CCCCCCCCCCCCCCCCC(=O)O)C(=O)O)NC(=O)[C@H](CCC(=O)O)NC(=O)[C@H](CC(=O)O)NC(=O)[C@H](CC(C)C)NC(=O)[C@](C)(CC(C)C)NC(=O)[C@@H](NC(=O)[C@H](CO)NC(=O)[C@H](Cc1ccc(O)cc1)NC(=O)[C@H](CC(=O)O)NC(=O)[C@H](CO)NC(=O)[C@@H](NC(=O)[C@](C)(Cc1ccccc1F)NC(=O)[C@@H](NC(=O)CNC(=O)[C@H](CCC(=O)O)NC(=O)C(C)(C)NC(=O)[C@@H](N)Cc1ccc(O)cc1)[C@@H](C)O)[C@@H](C)O)[C@@H](C)CC)[C@@H](C)CC)C(=O)N[C@@H](CCC(=O)O)C(=O)NCC(=O)NCC(=O)N1CCC[C@H]1C(=O)N[C@@H](CO)C(=O)N[C@@H](CO)C(=O)NCC(=O)N[C@@H](C)C(=O)N1CCC[C@H]1C(=O)N1CCC[C@H]1C(=O)N1CCC[C@H]1C(=O)N[C@@H](CO)C(N)=O` [Example 221] (H-Y[Aib]EGT[αMePhe(2-F)]TSDYSI[αMeL]LDEK([AEEA-AEEA-γGlu-C18 diacid])AQ[Aib]EFI[dE]YLIEGGPSSGAPPPS-NH2): the values for the EC50 in test [1] and in test [2] were 0.057 nM and 0.0445 nM, respectively. Besides, the inhibition constant Ki at human Gcg receptor turned out to be 154 nM; at human GIP receptor, 0.0414 nM; on human GLP-1R, 1.77 nM.
The like results for `CC[C@H](C)[C@H](NC(=O)[C@H](CC(C)C)NC(=O)[C@](C)(Cc1ccc(O)cc1)NC(=O)[C@@H](CCC(=O)O)NC(=O)[C@@H](NC(=O)[C@H](Cc1ccccc1)NC(=O)[C@H](CCC(=O)O)NC(=O)C(C)(C)NC(=O)[C@H](CCC(N)=O)NC(=O)[C@H](C)NC(=O)[C@H](CCCCNC(=O)COCCOCCNC(=O)COCCOCCNC(=O)CC[C@H](NC(=O)CCCCCCCCCCCCCCCCCCC(=O)O)C(=O)O)NC(=O)[C@H](CCC(=O)O)NC(=O)[C@H](CC(=O)O)NC(=O)[C@H](CC(C)C)NC(=O)[C@](C)(CC(C)C)NC(=O)[C@@H](NC(=O)[C@H](CO)NC(=O)[C@H](Cc1ccc(O)cc1)NC(=O)[C@H](CC(=O)O)NC(=O)[C@H](CO)NC(=O)[C@@H](NC(=O)[C@](C)(Cc1ccccc1F)NC(=O)[C@@H](NC(=O)CNC(=O)[C@H](CCC(=O)O)NC(=O)C(C)(C)NC(=O)[C@@H](N)Cc1ccc(O)cc1)[C@@H](C)O)[C@@H](C)O)[C@@H](C)CC)[C@@H](C)CC)C(=O)N[C@@H](CCC(=O)O)C(=O)NCC(=O)NCC(=O)N1CCC[C@H]1C(=O)N[C@@H](CO)C(=O)N[C@@H](CO)C(=O)NCC(=O)N[C@@H](C)C(=O)N1CCC[C@H]1C(=O)N1CCC[C@H]1C(=O)N1CCC[C@H]1C(=O)N[C@@H](CO)C(N)=O` [Example 222] (H-Y[Aib]EGT[αMePhe(2-F)]TSDYSI[αMeL]LDEK([AEEA-AEEA-γGlu-C20 diacid])AQ[Aib]EFI[dE][αMeY]LIEGGPSSGAPPPS-NH2; N-terminus assumed) were, in that order, 0.0248 nM, 0.0306 nM, 71.3 nM, 0.0495 nM and 3.59 nM.
The like results for `CC[C@H](C)[C@H](NC(=O)[C@H](CC(C)C)NC(=O)[C@](C)(Cc1ccc(O)cc1)NC(=O)[C@H](CCC(=O)O)NC(=O)[C@@H](NC(=O)[C@H](Cc1ccccc1)NC(=O)[C@H](CCC(=O)O)NC(=O)C(C)(C)NC(=O)[C@H](CCC(N)=O)NC(=O)[C@H](C)NC(=O)[C@H](CCCCNC(=O)COCCOCCNC(=O)COCCOCCNC(=O)CC[C@H](NC(=O)CCCCCCCCCCCCCCCCCCC(=O)O)C(=O)O)NC(=O)[C@H](CCC(=O)O)NC(=O)[C@H](CC(=O)O)NC(=O)[C@H](CC(C)C)NC(=O)[C@](C)(CC(C)C)NC(=O)[C@@H](NC(=O)[C@H](CO)NC(=O)[C@H](Cc1ccc(O)cc1)NC(=O)[C@H](CC(=O)O)NC(=O)[C@H](CO)NC(=O)[C@@H](NC(=O)[C@](C)(Cc1ccccc1F)NC(=O)[C@@H](NC(=O)CNC(=O)[C@H](CCC(=O)O)NC(=O)C(C)(C)NC(=O)[C@@H](N)Cc1ccc(O)cc1)[C@@H](C)O)[C@@H](C)O)[C@@H](C)CC)[C@@H](C)CC)C(=O)N[C@@H](CCC(=O)O)C(=O)NCC(=O)NCC(=O)N1CCC[C@H]1C(=O)N[C@@H](CO)C(=O)N[C@@H](CO)C(=O)NCC(=O)N[C@@H](C)C(=O)N1CCC[C@H]1C(=O)N1CCC[C@H]1C(=O)N1CCC[C@H]1C(=O)N[C@@H](CO)C(N)=O` [Example 223] (H-Y[Aib]EGT[αMePhe(2-F)]TSDYSI[αMeL]LDEK([AEEA-AEEA-γGlu-C20 diacid])AQ[Aib]EFIE[αMeY]LIEGGPSSGAPPPS-NH2) were, in that order, 0.0363 nM, 0.067 nM, 46.5 nM, 0.0921 nM and 5.62 nM.
The like results for `CC[C@H](C)[C@H](NC(=O)[C@H](CC(C)C)NC(=O)[C@H](Cc1ccc(O)cc1)NC(=O)[C@@H](CCC(=O)O)NC(=O)[C@@H](NC(=O)[C@H](Cc1ccccc1)NC(=O)[C@H](CCC(=O)O)NC(=O)C(C)(C)NC(=O)[C@H](CCC(N)=O)NC(=O)[C@H](C)NC(=O)[C@H](CCCCNC(=O)COCCOCCNC(=O)COCCOCCNC(=O)CC[C@H](NC(=O)CCCCCCCCCCCCCCCCCCC(=O)O)C(=O)O)NC(=O)[C@H](CCC(=O)O)NC(=O)[C@H](CC(=O)O)NC(=O)[C@H](CC(C)C)NC(=O)C(C)(C)NC(=O)[C@@H](NC(=O)[C@H](CO)NC(=O)[C@H](Cc1ccc(O)cc1)NC(=O)[C@H](CC(=O)O)NC(=O)[C@H](CO)NC(=O)[C@@H](NC(=O)[C@](C)(Cc1ccccc1F)NC(=O)[C@@H](NC(=O)CNC(=O)[C@H](CCC(=O)O)NC(=O)C(C)(C)NC(=O)[C@@H](N)Cc1ccc(O)cc1)[C@@H](C)O)[C@@H](C)O)[C@@H](C)CC)[C@@H](C)CC)C(=O)N[C@@H](CCC(=O)O)C(=O)NCC(=O)NCC(=O)N1CCC[C@H]1C(=O)N[C@@H](CO)C(=O)N[C@@H](CO)C(=O)NCC(=O)N[C@@H](C)C(=O)N1CCC[C@H]1C(=O)N1CCC[C@H]1C(=O)N1CCC[C@H]1C(=O)N[C@@H](CO)C(N)=O` [Example 224] (H-Y[Aib]EGT[αMePhe(2-F)]TSDYSI[Aib]LDEK([AEEA-AEEA-γGlu-C20 diacid])AQ[Aib]EFI[dE]YLIEGGPSSGAPPPS-NH2) were, in that order, 0.0349 nM, 0.0545 nM, 627 nM, 0.0482 nM and 6.86 nM.
As for `CC[C@H](C)[C@H](NC(=O)[C@H](CC(C)C)NC(=O)[C@H](Cc1ccc(O)cc1)NC(=O)[C@@H](CCC(=O)O)NC(=O)[C@@H](NC(=O)[C@H](Cc1ccccc1)NC(=O)[C@H](CCC(=O)O)NC(=O)C(C)(C)NC(=O)[C@H](CCC(N)=O)NC(=O)[C@H](C)NC(=O)[C@H](CCCCNC(=O)COCCOCCNC(=O)COCCOCCNC(=O)CC[C@H](NC(=O)CCCCCCCCCCCCCCCCCCC(=O)O)C(=O)O)NC(=O)[C@H](CCC(=O)O)NC(=O)[C@H](CC(=O)O)NC(=O)[C@H](CC(C)C)NC(=O)C(C)(C)NC(=O)[C@@H](NC(=O)[C@H](CO)NC(=O)[C@H](Cc1ccc(O)cc1)NC(=O)[C@H](CC(=O)O)NC(=O)[C@H](CO)NC(=O)[C@@H](NC(=O)[C@](C)(Cc1ccccc1)NC(=O)[C@@H](NC(=O)CNC(=O)[C@H](CCC(=O)O)NC(=O)C(C)(C)NC(=O)[C@@H](N)Cc1ccc(O)cc1)[C@@H](C)O)[C@@H](C)O)[C@@H](C)CC)[C@@H](C)CC)C(=O)N[C@@H](CCC(=O)O)C(=O)NCC(=O)NCC(=O)N1CCC[C@H]1C(=O)N[C@@H](CO)C(=O)N[C@@H](CO)C(=O)NCC(=O)N[C@@H](C)C(=O)N1CCC[C@H]1C(=O)N1CCC[C@H]1C(=O)N1CCC[C@H]1C(=O)N[C@@H](CO)C(N)=O` [Example 225] (H-Y[Aib]EGT[αMeF]TSDYSI[Aib]LDEK([AEEA-AEEA-γGlu-C20 diacid])AQ[Aib]EFI[dE]YLIEGGPSSGAPPPS-NH2), the figures for the EC50 in test [1] and in test [2] were 0.067 nM and 0.101 nM, respectively. Besides, the Ki at human Gcg receptor worked out at 714 nM; at human GIP receptor it was 0.0622 nM; on human GLP-1R, 8.79 nM.
